The subject of test [1] is SARS-CoV-2. In words: In vivo antiviral activity against SARS CoV-2 Gamma strain (hCoV-19/Japan/TY7-501/202) harbouring spike protein K417T mutant intranasally inoculated in BALB/c mouse assessed as reduction in lung intrapulmonary viral titer administered orally immediately after viral infection and 12 hrs after infection measured after 24 hrs of post infection. Type of test: functional, organism-based. The settings on record: Severe acute respiratory syndrome coronavirus 2, route po, DDE = dose-dependent effect.

Test [2] deals with SARS-CoV-2. In words: In vivo antiviral activity against SARS CoV-2 gamma strain (hCoV-19/Japan/TY7-501/202) harbouring spike protein K417T mutant intranasally inoculated in BALB/c mouse assessed as reduction in lung intrapulmonary viral titer at 16 to 32 mg/kg, po immediately after viral infection and 12 hrs after viral infection measured after 24 hrs of post infection. Type of test: functional, Severe acute respiratory syndrome coronavirus 2. The conditions noted are these: dose 16-32 mg/kg.

Here are results for one compound from ChEMBL document CHEMBL5154827, “Discovery of S-217622, a Noncovalent Oral SARS-CoV-2 3CL Protease Inhibitor Clinical Candidate for Treating COVID-19” (J Med Chem, 2022).

In the case of `Cn1cnc(Cn2c(=O)[nH]/c(=N\c3cc4cn(C)nc4cc3Cl)n(Cc3cc(F)c(F)cc3F)c2=O)n1`, the Activity result with SARS-CoV-2 [1] was “Dde”. Besides, in the test with SARS-CoV-2 [2], the TCID50 was 1.8 log10/ml.
